The values below come from patent US11512079B2, “Heterocycle substituted pyridine derivative antifungal agents” (Amplyx Pharmaceuticals, Inc., priority 2017, dated 2022).

≈ marks a conversion by molar mass, not a printed value. A value given as a limit tells only on which side of the number the result lay.

Assay type in all cases: cell-based
For one experiment, the system named is Candida albicans 90028. The experiment can be described thus: In vitro antifungal assay (Example IX), microdilution broth, MIC. As to conditions: minimum inhibitory concentration (≥50% inhibition), 35° C., 40-48 h, RPMI1640. Summed up:
(§1)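 Yeast inocula (2.5×10^3 cells/mL, RPMI1640) were exposed to twofold compound series reaching 2-0.0019 μg/mL final, per CLSI yeast methodology. Incubation at 35° C. ran 40-48 h for Candida albicans 90028 and 72 h for Cryptococcus neoformans H99. MIC endpoints were confirmed by absorbance at 600 nm.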
On the technique in general: Broth dilution looks for growth in wells or tubes with falling amounts of substance.

Experiment [1] deals with Cryptococcus neoformans H99. The experiment is described as above. As to conditions: minimum inhibitory concentration (≥50% inhibition), 35° C., 72 h, RPMI1640. Summed up:
as §1

Experiment [2] concerns Rhizomucor pusillus 46342. The experiment can be described thus: In vitro antifungal assay (Example IX), microdilution broth, MEC. As to conditions: minimum effective concentration (shortening of hyphae), 35° C., 40-48 h, RPMI1640. The essentials:
(§2)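 Read-out is the minimum effective concentration: lowest compound level causing shorter hyphae than in DMSO controls, echinocandin-style. Broth microdilution used conidia or spores harvested from agar plates, cleared of mycelium and clumps, at a final 1-2×10^4 spores/mL in RPMI1640.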

The test system of experiment [3] is Aspergillus fumigatus MYA3626. Described as above. The settings on record: minimum effective concentration (shortening of hyphae), 35° C., 40-48 h, RPMI1640. Summed up: as §2
Another experiment relates to Cryptococcus gattii. The experiment can be described thus: In vitro antifungal assay (Example IX), microdilution broth, MIC. As to conditions: minimum inhibitory concentration (≥50% inhibition), 35° C., 72 h (Cryptococcus), RPMI1640. Here is the method: Preparation of Fungal Suspension. C. albicans 90028 and C. neoformans H99 strains were streaked from frozen stocks at −80° C. onto Sabouraud Dextrose Agar (SDA) plates. These were allowed to grow for 24 h (C. albicans) and 48 h (C. neoformans) at 35° C. before using them in the assay. 5-6 individual colonies were picked and diluted into sterile water to obtain a fungal suspension. The cell density of the suspension was determined and the culture diluted with RPMI1640 medium to obtain a fungal suspension of 2.5×10^3 cells/mL. The suspension was used in the MIC measurement as described below.
Preparation of Compound Stocks and Intermediate Dilutions: The compounds were weighed and DMSO was added to prepare a 10 mg/mL stock. The solutions were mixed by vortexing and sonication at 37° C. for 5-10 mins. The resulting solutions were sterile filtered using a PTFE filter, and aliquoted (12 μL or as needed) and stored at −20° C. Intermediate compound dilutions were prepared in sterile polypropylene tubes in 100% DMSO. The compound stock solution was first diluted in DMSO to obtain a concentration of […] to 0.19 μg/mL.
MIC/MEC Measurement: 99 μL 1 of the fungal suspension in RPMI1640 prepared as above was added to each well of a 96-well round bottom assay plate. 1 μL of the intermediate compound dilutions (200-0.19 μg/mL) were added to wells of the plate. This led to a 100-fold dilution of the intermediate dilutions resulting in a final compound concentration of 2-0.0019 μg/mL in the plate. 1 μL of DMSO was added to “No drug” control wells. The solutions were mixed by shaking on a plate shaker for 10 mins and plates incubated at 35° C. for 40-48 h (C. albicans, A. fumigatus, R. pusillus) and 72 h (Cryptococcus). […] This was validated by thorough mixing and reading at 600 nm on a microplate reader. The minimum concentration that led to shortening of hyphae as compared to hyphal growth in DMSO control wells was determined as the minimum effective concentration (MEC) for A. fumigatus and R. pusillus (as read for echinocandins). The use of the MIC and MEC endpoints against yeasts and molds, respectively has been described by Pfaller M A, Duncanson F, Messer S A, Moet G J, Jones R N, Castanheira M. Antimicrob Agents Chemother. 2011. 55(11):5155-8. In vitro activity of a novel broad-spectrum antifungal, E1210, tested against Aspergillus spp. determined by CLSI and EUCAST broth microdilution methods. Results are shown in Table 2, and the letters indicate the following ranges in μg/mL: […]

Take `Nc1ncccc1-c1cc(Cc2ccnc(OCc3ccccc3)c2)no1` [Example 148, 3-(3-((2-(benzyloxy)pyridin-4-yl)methyl)isoxazol-5-yl)pyridin-2-amine]: the MIC (in the experiment on Candida albicans 90028; in experiment [1]; in the experiment with Cryptococcus gattii) was 0.01 to 0.1 µg/mL (≈ 0.0279 to 0.279 µM) throughout. The minimal effective concentration (in general, the smallest amount tested that counted as effective) in experiment [2] is 0.1 to 1 µg/mL; in experiment [3], 0.01 to 0.1 µg/mL.
For `Nc1ncccc1-c1cc(Cc2ccnc(OCc3ccccc3F)c2)no1` [Example 149, 3-(3-((2-((2-fluorobenzyl)oxy)pyridin-4-yl)methyl)isoxazol-5-yl)pyridin-2-amine], the MIC (usually the lowest concentration that inhibits growth of the organism) against Candida albicans 90028 fell in the range of 0.01 to 0.1 µg/mL (≈ 0.0266 to 0.266 µM); in experiment [1], 0.01 to 0.1 µg/mL (≈ 0.0266 to 0.266 µM); in the experiment on Cryptococcus gattii, 0.1 to 1 µg/mL (≈ 0.266 to 2.66 µM). For the same compound, the minimal effective concentration in experiment [2] is above 1 µg/mL; in experiment [3], 0.01 to 0.1 µg/mL.
With `Nc1ncccc1-c1cc(Cc2ccnc(OCC3CC3)c2)no1` [Example 150, 3-(3-((2-(cyclopropylmethoxy)pyridin-4-yl)methyl)isoxazol-5-yl)pyridin-2-amine], the MIC (in the experiment with Candida albicans 90028; in experiment [1]; with Cryptococcus gattii) was 0.1 to 1 µg/mL (≈ 0.31 to 3.1 µM) each time. In addition, the minimal effective concentration in experiment [2] is above 1 µg/mL; in experiment [3], 0.1 to 1 µg/mL.
Consider `Nc1ncccc1-c1cc(Cc2ccc(OCc3ccnc(F)c3)nc2)no1` [Example 154, 3-(3-((6-((2-fluoropyridin-4-yl)methoxy)pyridin-3-yl)methyl)isoxazol-5-yl)pyridin-2-amine], for which the MIC (in the experiment on Candida albicans 90028; in experiment [1]; in the experiment with Cryptococcus gattii) was 0.01 to 0.1 µg/mL (≈ 0.0265 to 0.265 µM) throughout. For the same compound, the minimal effective concentration was in the range of 0.1 to 1 µg/mL in experiment [2] and 0.01 to 0.1 µg/mL in experiment [3].
`Nc1ncccc1-c1cc(Cc2ccc(OCCn3cccn3)nc2)no1` [Example 156, 3-(3-((6-(2-(1H-pyrazol-1-yl)ethoxy)pyridin-3-yl)methyl)isoxazol-5-yl)pyridin-2-amine]: the MIC is 0.1 to 1 µg/mL (≈ 0.276 to 2.76 µM) with Candida albicans 90028, 0.1 to 1 µg/mL (≈ 0.276 to 2.76 µM) in experiment [1] and above 1 µg/mL with Cryptococcus gattii. In addition, the minimal effective concentration in experiment [2] and in experiment [3] was above 1 µg/mL throughout.
On to `C#CCOc1ccc(Cc2cc(-c3cccnc3N)on2)cn1` [Example 157, 3-(3-((6-(prop-2-yn-1-yloxy)pyridin-3-yl)methyl)isoxazol-5-yl)pyridin-2-amine], for which the MIC in the experiment with Candida albicans 90028 is above 1 µg/mL; in experiment [1], 0.1 to 1 µg/mL (≈ 0.326 to 3.26 µM); with Cryptococcus gattii, 0.1 to 1 µg/mL (≈ 0.326 to 3.26 µM). The minimal effective concentration in experiment [2] and in experiment [3] was 0.1 to 1 µg/mL throughout.
As to `Nc1ncccc1-c1cc(Cc2ccc(Oc3ccc(F)cc3)nc2)no1` [Example 160, 3-(3-((6-(4-fluorophenoxy)pyridin-3-yl)methyl)isoxazol-5-yl)pyridin-2-amine], the MIC (in the experiment on Candida albicans 90028; in experiment [1]; in the experiment on Cryptococcus gattii) was 0.1 to 1 µg/mL (≈ 0.276 to 2.76 µM) each time. Besides, the values for the minimal effective concentration in experiment [2] and in experiment [3] were 0.1 to 1 µg/mL and 0.01 to 0.1 µg/mL, respectively.
As for `Nc1ncccc1-c1cc(Cc2ccc(Oc3cccc(Cl)c3)nc2)no1` [Example 161, 3-(3-((6-(3-chlorophenoxy)pyridin-3-yl)methyl)isoxazol-5-yl)pyridin-2-amine], the MIC (in the experiment with Candida albicans 90028; in experiment [1]; against Cryptococcus gattii) was 0.01 to 0.1 µg/mL (≈ 0.0264 to 0.264 µM) each time. Besides, the minimal effective concentration is 0.1 to 1 µg/mL in experiment [2] and 0.01 to 0.1 µg/mL in experiment [3].
Take `COc1cc(COc2ccc(Cc3cc(-c4cccnc4N)on3)cn2)ccn1` [Example 165, 3-(3-((6-((2-methoxypyridin-4-yl)methoxy)pyridin-3-yl)methyl)isoxazol-5-yl)pyridin-2-amine]: the figures for the MIC (against Candida albicans 90028; in experiment [1]; in the experiment on Cryptococcus gattii) were 0.1 to 1 µg/mL (≈ 0.257 to 2.57 µM), 0.01 to 0.1 µg/mL (≈ 0.0257 to 0.257 µM) and 0.01 to 0.1 µg/mL (≈ 0.0257 to 0.257 µM), respectively. Also, the results for the minimal effective concentration in experiment [2] and in experiment [3] were 0.1 to 1 µg/mL and 0.01 to 0.1 µg/mL, respectively.
For `Nc1ncccc1-c1cc(Cc2ccc(COc3ccccc3F)cc2)no1` [Example 168, 3-(3-(4-((2-fluorophenoxy)methyl)benzyl)isoxazol-5-yl)pyridin-2-amine], the MIC with Candida albicans 90028 was in the range of 0.01 to 0.1 µg/mL (≈ 0.0266 to 0.266 µM); in experiment [1], 0.1 to 1 µg/mL (≈ 0.266 to 2.66 µM); against Cryptococcus gattii, 0.01 to 0.1 µg/mL (≈ 0.0266 to 0.266 µM). Besides, the results for the minimal effective concentration in experiment [2] and in experiment [3] were 0.1 to 1 µg/mL and 0.01 to 0.1 µg/mL, respectively.
As for `Nc1ncccc1-c1cc(Cc2ccc(COc3cccc(F)c3)cc2)no1` [Example 169, 3-(3-(4-((3-fluorophenoxy)methyl)benzyl)isoxazol-5-yl)pyridin-2-amine], the MIC (in the experiment with Candida albicans 90028; in experiment [1]; against Cryptococcus gattii) was 0.01 to 0.1 µg/mL (≈ 0.0266 to 0.266 µM) in each case. Also, the minimal effective concentration in experiment [2] was 0.1 to 1 µg/mL; in experiment [3] it was 0.01 to 0.1 µg/mL.
In the case of `Nc1ncccc1-c1cc(Cc2ccc(Cn3cccn3)cc2)no1` [compound 1, 3-(3-(4-((1H-pyrazol-1-yl)methyl)benzyl)isoxazol-5-yl)pyridin-2-amine], the MIC fell in the range of 0.01 to 0.1 µg/mL (≈ 0.0302 to 0.302 µM) against Candida albicans 90028, 0.1 to 1 µg/mL (≈ 0.302 to 3.02 µM) in experiment [1] and 0.01 to 0.1 µg/mL (≈ 0.0302 to 0.302 µM) in the experiment with Cryptococcus gattii. Moreover, the minimal effective concentration in experiment [2] is above 1 µg/mL; in experiment [3], 0.1 to 1 µg/mL.
`Nc1ncccc1-c1cc(Cc2ccc(Cn3cc(F)cn3)cc2)no1` [compound 4, 3-(3-(4-((4-fluoro-1H-pyrazol-1-yl)methyl)benzyl)isoxazol-5-yl)pyridin-2-amine]: the MIC (against Candida albicans 90028; in experiment [1]; in the experiment on Cryptococcus gattii) was 0.1 to 1 µg/mL (≈ 0.286 to 2.86 µM) in each case. Further, the values for the minimal effective concentration in experiment [2] and in experiment [3] were 0.1 to 1 µg/mL and 0.01 to 0.1 µg/mL, respectively.
Regarding `Nc1ncccc1-c1cc(Cc2ccc(Cn3cc(C(F)(F)F)cn3)cc2)no1` [compound 5, 3-(3-(4-((4-(trifluoromethyl)-1H-pyrazol-1-yl)methyl)benzyl)isoxazol-5-yl)pyridin-2-amine], the MIC (against Candida albicans 90028; in experiment [1]; against Cryptococcus gattii) was 0.1 to 1 µg/mL (≈ 0.25 to 2.5 µM) throughout. For the same compound, the minimal effective concentration in experiment [2] and in experiment [3] was 0.1 to 1 µg/mL in each case.
Regarding `Nc1ncccc1-c1cc(Cc2ccc(Cc3ccccc3)cc2)no1` [compound 8, 3-(3-(4-benzylbenzyl)isoxazol-5-yl)pyridin-2-amine], the MIC in the experiment with Candida albicans 90028 is 0.1 to 1 µg/mL (≈ 0.293 to 2.93 µM); in experiment [1] it was 0.01 to 0.1 µg/mL (≈ 0.0293 to 0.293 µM); against Cryptococcus gattii, at most 0.01 µg/mL. Besides, the minimal effective concentration in experiment [2] and in experiment [3] was 0.1 to 1 µg/mL throughout.
For `Nc1ncccc1-c1cc(Cc2ccc(Cc3cccnc3)cc2)no1` [compound 9, 3-(3-(4-(pyridin-3-ylmethyl)benzyl)isoxazol-5-yl)pyridin-2-amine], the MIC in the experiment with Candida albicans 90028 lay in the range of 0.01 to 0.1 µg/mL (≈ 0.0292 to 0.292 µM); in experiment [1], 0.1 to 1 µg/mL (≈ 0.292 to 2.92 µM); with Cryptococcus gattii, 0.01 to 0.1 µg/mL (≈ 0.0292 to 0.292 µM). Moreover, the minimal effective concentration in experiment [2] and in experiment [3] was 0.1 to 1 µg/mL in each case.
For the compound `Nc1ncccc1-c1cc(Cc2ccc(Cc3cn[nH]c3)cc2)no1` [compound 10, 3-(3-(4-((1H-pyrazol-4-yl)methyl)benzyl)isoxazol-5-yl)pyridin-2-amine], the MIC (in the experiment with Candida albicans 90028; in experiment [1]; in the experiment on Cryptococcus gattii) was 0.1 to 1 µg/mL (≈ 0.302 to 3.02 µM) in each case. In addition, the results for the minimal effective concentration in experiment [2] and in experiment [3] were above 1 µg/mL and 0.1 to 1 µg/mL, respectively.
Turning to `Cn1cc(Cc2ccc(Cc3cc(-c4cccnc4N)on3)cc2)cn1` [compound 11, 3-(3-(4-((1-methyl-1H-pyrazol-4-yl)methyl)benzyl)isoxazol-5-yl)pyridin-2-amine], the MIC (against Candida albicans 90028; in experiment [1]; against Cryptococcus gattii) was 0.1 to 1 µg/mL (≈ 0.29 to 2.9 µM) in each case. In addition, the values for the minimal effective concentration in experiment [2] and in experiment [3] were above 1 µg/mL and 0.01 to 0.1 µg/mL, respectively.
